The record followed here is US11692004B2, “Substituted pyrazole compound, preparation method therefor, pharmaceutical composition and medical use thereof” (JIANGSU VANGUARD PHARMACEUTICAL CO., LTD., priority 2018, dated 2023).

What is called IC50 is the concentration at which inhibition is half-maximal. What is called EC50 is the concentration that produces a half-maximal response. In general, solubility refers to the concentration that dissolves in the medium under given conditions.

≈ marks a conversion by molar mass, not a printed value.

The subject of series [1] is B6SJL-Tg (SOD1*G93A) mice. Nature of the series: In vivo efficacy test of ALS model. On the set-up: key to Rotarod Time / PaGE: “+” indicates a significant difference compared with the solvent group, p < 0.05. Here is the method: B6SJL-Tg (SOD1*G93A) mice were intraperitoneally administered single-doses once a day for 4 consecutive weeks. The weight of the mice was determined before and after the administration every week. The motor function of the mice was determined by rota-rod and PaGE tests with the time points before and after 4-week administration. The mice plasma was collected and detected for SOD levels through ELISA. The Index Evaluation described below was used to evaluate the efficacy of the compounds of the examples in ALS model and to what extent the compounds of the examples improve the survival period and motor activity.
The animals were delivered to the SPF animal room and raised for more than one week. Five days before the test, the mice were accustomed to a round of tests per day. The mice were randomly divided into groups according to their body weights, 8 mice for each group. Among them, the solvent group was given with the same volume of solvent (physiological saline) every day.
The mice were administered with a volume of 10 ml/kg.
i.p once a day for 4 weeks.
Index evaluation time started from the beginning of the experiment to the death of the animals.
1) ALS onset time: For 2 consecutive observation days, the mice appeared limb, tremor and/or limb weakness at tail suspension were determined as the ALS onset. The determination of limb weakness: the mice were placed on the rota-rod device with a diameter of 3.5 cm. The speed is set to 15 rpm to record the longest fall latency divided by 420 s. The mice of less 420 s were determined as limb weakness.
2) Rota-rod Test: The mice were placed on the rota-rod device with a diameter of 3.5 cm. The speed is set to 12 rpm to record the longest fall latency divided by 180 s. The latency of more than 180 s was recorded as 180 s, and actual time was recorded when less than 180 s.
3) Paw Grip Endurance (PaGE) Test: The mice were placed on the traditional wire grid. The grid was gently shaken to cause the mice to tighten its grip on the wires then inverted, and time recording commenced. The time was recorded until the mouse lost its grip in hind limbs divided by 90 s. The time more than 90 s was recorded as 90 s, while the time less than 90 s was recorded by its actual time. The test was completed in triplicate with the highest score used for analysis.
5) Plasma SOD concentration: The blood was collected and mixed with EP tube containing heparin before and after administration at the 4th week, and then centrifuged at 1000 g for 10 min. The plasma was collected and stored in aliquots at −70° C. ELISA kit was used to detect plasma SOD levels.

Series [2] can be described thus: Cytotoxic test (MTT). It counts as cell-based. The note with it: rat, PC12 cells, 48 h incubation. How it is done:
(§1) After resuscitating, the PC12 cells were cultured in RPMI-1640 containing 10% horse serum and 5% Fetus Bovine Serum (FBS) under 5% CO2 at 37° C. for two weeks. The medium was changed every other day. The compounds were diluted into solutions of 12.5, 25, 50, 100, 200, 300 μM with culture medium (except examples 33-45 with additional solutions of 400 μM and 500 μM). The PC12 cells were seeded into a 96-well plate at a density of 1.2×10^4 cells/well and cultured in a 37° C., 5% CO2 incubator for 24 hours. Remove the medium, the cells were added with the compound solutions of different concentrations as test solutions for another 48 h incubation in a 37° C., 5% CO2 incubator.
After the incubation, the wells were added with 20 μL 5 mg/mL MTT and incubated for 4 hours at 37° C. Carefully removed the medium and added 150 μL DMSO. The plates were placed on an enzyme-labeled instrument and vibrated for 5 min. The absorbance Atest solution were obtained at 490 nm with the Ablank of the well without cells and the Acontrol of the well with untreated cells. The survival rates of the cells in every well were calculated by the formula as Survival rate (%)=(Atest solution−Ablank)/(Acontrol−Ablank)*100%

Series [3] has as its system PC12 cells. Kind of series: In-vitro neuroprotection-I (H2O2 injury, MTT). In kind it is cell-based. The note with it: Rattus norvegicus, PC-12, 48 h compound, then 200 μM H2O2 24 h, MTT survival rate. How it is done: All samples were made into 60 mM stock solution by DMSO, which were 200 times diluted to 300 μM by medium. And the final concentration was further diluted into different concentrations by media.
Control: Normal cell-plating and same cell medium as other group. 24 hours later, the medium was discarded. Incubate the cell in new media for 24 hours. No compound and hydrogen peroxide treatment. Other steps were the same as the sample test as mentioned below did.
Blank: no cell plating, cell medium, and other steps were the same as the sample test as mentioned below did.
as §1, with “(except that” for “(except”, “The PC 12” for “The PC12”, “of 8×10^3” for “of 1.2×10^4”, “hours. Removed” for “hours. Remove”, “incubator. After the incubation, apart from the blank and control groups, the wells (including 0 μM drug group) were added to the medium-prepared 200 μM H2O2, and continued for another 24 h incubation in a 37° C., 5% CO2 incubator.” for “incubator.”
After the incubation, the wells were added with 20 μL 5 mg/mL MTT and incubated for 4 hours at 37° C. Carefully removed the medium and added 150 μL DMSO. The plates were placed on an enzyme-labeled instrument and vibrated for 5 min. The absorbance Atest solution were obtained at 490 nm with the Ablank of the well without cells and the Acontrol of the well with untreated cells. The survival rate of the cells in every well by the formula survival rate (%)=(Atest solution−Ablank)/(Acontrol−Ablank)*100%.

Series [4] concerns MCAO model (middle cerebral artery ischemia-reperfusion). Kind of series: In vivo drug efficacy test of MCAO model. The note with it: SD rats, MCAO 2 h then reperfusion, tail vein infusion 30 min; for Cerebral infarction area (%): TTC staining, infarct area to whole brain area; for Improvements of nerve function (%): score at 24 h versus model control.
Series [5] in a line: Solubility test in distilled water. In kind it is physicochemical. To be noted: thermodynamic from solid, 25° C. Here is the method: Test method: the dry compound was slowly dissolved into about 0.5 ml distilled water in a 5 ml EP tube until saturation (turbid after ultra-sonic vibration at 25° C.). The solution was filtered and moved to another clean 5 ml EP tube (pre-weighed) and the tube was weighed again to calculate the solution weight. The solution was freeze dried. The remaining solute was weighed to calculate the solvent weight, and then the compound solubility in water was determined.

The mark [6] stands for this setting: 86 μmol/kg i.p. once a day for 4 weeks.
Where [7] appears, read: 86 μmol/kg i.p. once a day for 4 weeks, versus solvent group.

Take `Cc1cc(OCOC(=O)c2cc(N(C)C)ccc2O)n(-c2ccccc2)n1` [Compound 24, (3-methyl-1-phenylpyrazole-5-)oxymethyl-(2-hydroxy-5-N,N-dimethyl)benzoate]: in series [1] (setting [6]), the “Onset time(d)” value is on record as 118.29 ± 6.32* d and the “Survival time” value turned out to be 147.71 ± 8.94 days. For the same compound, the “Plasma SOD concentration on day 28th(U/mL)” value in series [1] (86 μmol/kg i.p. once a day for 4 weeks, ELISA) is 150.55 ± 11.88* U/mL. For the same compound, in series [1] (setting [7]), the PaGE entry is listed as “+” and the “Rotarod Time” value was “+”. The “Fall latency in rota-rod test and PaGE test” value in series [1] (28-day drug intervention) is recorded as “better than the marketed drug edaravone”. In series [2], this compound had an IC50 at 48 h of 272 µM. Moreover, the EC50 in series [3] came out at 44.7 µM.

The compound `Cc1cc(OC2C[C@H](O)[C@@H](CO)O2)n(-c2ccccc2)n1` (stereo partly drawn) [Compound 40, 1-phenyl-3-methyl-5-O-D-(2-deoxy)riboside-pyrazole] had an IC50 at 48 h in series [2] above 500 µM. Besides, in series [4], the “Cerebral infarction area (%)” value was determined as 18.5% and the “Improvements of nerve function (%)” value is given as 16.8%. Besides, a half-maximal response in series [3] (EC50) required 54.7 µM. In addition, in series [5], the concentration in solution (solubility) came to 3000 µg/mL (≈ 10.3 mM).

As to `Cc1cc(OC2O[C@H](CO)[C@@H](O)[C@H](O)[C@@H]2O)n(-c2ccccc2)n1` (stereo partly drawn) [Compound 34, 1-phenyl-3-methyl-5-O-D-mannoside-pyrazole], the IC50 at 48 h in series [2] was above 300 µM. Also, in series [4], the “Cerebral infarction area (%)” value is recorded as 14.5% and the “Improvements of nerve function (%)” value is 21.1%. In series [3], this compound returned an EC50 of 120 µM. In series [5], this compound showed a solubility of 12300 µg/mL (≈ 36.6 mM).

For `Cc1cc(OC2O[C@H](CO)[C@H](O)[C@H](O)[C@H]2O)n(-c2ccccc2)n1` (stereo partly drawn) [Compound 35, 1-phenyl-3-methyl-5-O-D-galactoside-pyrazole], the IC50 at 48 h in series [2] was above 300 µM. In series [4], the “Cerebral infarction area (%)” value is 15.8% and the “Improvements of nerve function (%)” value is given as 22.2%. This compound also came in with an EC50 in series [3] of 87.9 µM. Further, the concentration in solution in series [5] (solubility) was 18000 µg/mL (≈ 53.5 mM).

As to `CC(=O)N[C@H]1C(Oc2cc(C)nn2-c2ccccc2)O[C@H](CO)[C@@H](O)[C@@H]1O` (stereo partly shown) [Compound 37], the IC50 at 48 h in series [2] is above 500 µM. In series [4], the “Cerebral infarction area (%)” value is recorded as 17.6% and the “Improvements of nerve function (%)” value came out at 17.5%. The response in series [3] was half-maximal at 90 µM (EC50). The compound also returned a solubility in series [5] of 6500 µg/mL (≈ 17.2 mM).

`Cc1cc(OC2O[C@H](CO)[C@@H](O)[C@H]2O)n(-c2ccccc2)n1` (stereo partly drawn) [Compound 39, 1-phenyl-3-methyl-5-O-D-riboside-pyrazole] came in with an IC50 at 48 h in series [2] above 500 µM. Also, in series [4], the “Cerebral infarction area (%)” value is on record as 18.0% and the “Improvements of nerve function (%)” value came out at 16.9%. The EC50 in series [3] came out at 55 µM. Also, in series [5], the solubility stood at 5100 µg/mL (≈ 16.6 mM).

`Cc1cc(OC2OC[C@@H](O)[C@H](O)[C@H]2O)n(-c2ccccc2)n1` (stereo partly drawn) [Compound 38, 1-phenyl-3-methyl-5-O-D-xylopyranoside-pyrazole] displayed an IC50 at 48 h in series [2] above 500 µM. Also, in series [4], the “Cerebral infarction area (%)” value is reported as 17.8% and the “Improvements of nerve function (%)” value is recorded as 17.0%. In series [5], this compound showed a solubility of 3800 µg/mL (≈ 12.4 mM).

In series [2], `Cc1cc(OC2C[C@@H](O)[C@H](O)[C@@H](CO)O2)n(-c2ccccc2)n1` (stereo partly drawn) [Compound 36, 1-phenyl-3-methyl-5-O-D-(2-deoxy)glucoside-pyrazole] returned an IC50 at 48 h above 300 µM. In addition, in series [4], the “Cerebral infarction area (%)” value worked out at 14.1% and the “Improvements of nerve function (%)” value amounted to 24.1%. For the same compound, a half-maximal response in series [3] (EC50) required 79.6 µM. The same compound showed a solubility in series [5] of 4200 µg/mL (≈ 13.1 mM).

Compound `Cc1cc(OC(C)OC(=O)CCCc2ccccc2)n(-c2ccccc2)n1` (stereo not shown) [Compound 9, 1-(3-methyl-1-phenylpyrazole)oxyethyl phenylbutyrate] returned an IC50 at 48 h in series [2] above 300 µM. In series [4], the “Cerebral infarction area (%)” value was found to be 19.8% and the “Improvements of nerve function (%)” value was determined as 16.0%. The same compound registered an EC50 in series [3] of 120 µM.
